{"source": "patent US12618095B2", "about": "“Medium for Bacillus cereus group detection” (SHIMADZU DIAGNOSTICS CORPORATION, priority 2020, dated 2026)", "experiment_in_all_cases": "Test Example 10: agar medium with aztreonam or ceftazidime", "key": {"B. thuringiensis": {"test_system": "B. thuringiensis", "conditions": "NBRC101235, 22 hours"}, "E. amnigenus": {"test_system": "E. amnigenus", "conditions": "22 hours; for Number of colonies: ATCC33072"}, "E. coli": {"test_system": "E. coli", "assay_type": "cell-based", "conditions": "22 hours; for Number of colonies: ATCC8739"}, "B. cereus": {"test_system": "B. cereus", "conditions": "22 hours"}, "[1]": {"conditions": "Ceftazidime 0.05 mg, 10^1 cfu/mL"}, "[2]": {"conditions": "Ceftazidime 0.05 mg, 10^2 cfu/mL"}, "[3]": {"conditions": "Ceftazidime 0.05 mg, 10^3 cfu/mL"}, "[4]": {"conditions": "Ceftazidime 0.05 mg, 10^4 cfu/mL"}, "[5]": {"conditions": "Ceftazidime 0.05 mg, 10^5 cfu/mL"}, "[6]": {"conditions": "Ceftazidime 0.5 mg, 10^1 cfu/mL"}, "[7]": {"conditions": "Ceftazidime 0.5 mg, 10^2 cfu/mL"}, "[8]": {"conditions": "Ceftazidime 0.5 mg, 10^3 cfu/mL"}, "[9]": {"conditions": "Ceftazidime 0.5 mg, 10^4 cfu/mL"}, "[10]": {"conditions": "Ceftazidime 0.5 mg, 10^5 cfu/mL"}}}
{"molecule": "CC(C)(O/N=C(\\C(=O)N[C@@H]1C(=O)N2C(C(=O)[O-])=C(C[n+]3ccccc3)CS[C@H]12)c1csc(N)n1)C(=O)O", "note": "[ceftazidime]", "values": [{"measurement": "Number of colonies", "setting": "B. thuringiensis; [1]", "result": 5}, {"measurement": "Number of colonies", "setting": "B. thuringiensis; [2]", "result": 13}, {"measurement": "Number of colonies", "setting": "B. thuringiensis; [3]", "result": "+"}, {"measurement": "Number of colonies", "setting": "B. thuringiensis; [4]", "result": "+"}, {"measurement": "Number of colonies", "setting": "B. thuringiensis; [5]", "result": "+"}, {"measurement": "Number of colonies", "setting": "B. thuringiensis; [6]", "result": 3}, {"measurement": "Number of colonies", "setting": "B. thuringiensis; [7]", "result": 10}, {"measurement": "Number of colonies", "setting": "B. thuringiensis; [8]", "result": "+"}, {"measurement": "Number of colonies", "setting": "B. thuringiensis; [9]", "result": "+"}, {"measurement": "Number of colonies", "setting": "B. thuringiensis; [10]", "result": "+"}, {"measurement": "Number of colonies", "setting": "B. thuringiensis; Ceftazidime 5 mg, 10^1 cfu/mL", "result": 4}, {"measurement": "Number of colonies", "setting": "B. thuringiensis; Ceftazidime 5 mg, 10^2 cfu/mL", "result": 16}, {"measurement": "Number of colonies", "setting": "B. thuringiensis; Ceftazidime 5 mg, 10^3 cfu/mL", "result": "+"}, {"measurement": "Number of colonies", "setting": "B. thuringiensis; Ceftazidime 5 mg, 10^4 cfu/mL", "result": "+"}, {"measurement": "Number of colonies", "setting": "B. thuringiensis; Ceftazidime 5 mg, 10^5 cfu/mL", "result": "+"}, {"measurement": "Number of colonies", "setting": "E. amnigenus; [1]", "result": "−"}, {"measurement": "Number of colonies", "setting": "E. amnigenus; [2]", "result": "−"}, {"measurement": "Number of colonies", "setting": "E. amnigenus; [3]", "result": 1}, {"measurement": "Number of colonies", "setting": "E. amnigenus; [4]", "result": 33}, {"measurement": "Number of colonies", "setting": "E. amnigenus; [5]", "result": "+"}, {"measurement": "Number of colonies", "setting": "E. amnigenus; [6]", "result": "−"}, {"measurement": "Number of colonies", "setting": "E. amnigenus; [7]", "result": "−"}, {"measurement": "Number of colonies", "setting": "E. amnigenus; [8]", "result": "−"}, {"measurement": "Number of colonies", "setting": "E. amnigenus; [9]", "result": "−"}, {"measurement": "Number of colonies", "setting": "E. amnigenus; [10]", "result": "−"}, {"measurement": "Number of colonies", "setting": "E. amnigenus; Ceftazidime 5 mg, 10^1 cfu/mL", "result": "−"}, {"measurement": "Number of colonies", "setting": "E. amnigenus; Ceftazidime 5 mg, 10^2 cfu/mL", "result": "−"}, {"measurement": "Number of colonies", "setting": "E. amnigenus; Ceftazidime 5 mg, 10^3 cfu/mL", "result": "−"}, {"measurement": "Number of colonies", "setting": "E. amnigenus; Ceftazidime 5 mg, 10^4 cfu/mL", "result": "−"}, {"measurement": "Number of colonies", "setting": "E. amnigenus; Ceftazidime 5 mg, 10^5 cfu/mL", "result": "−"}, {"measurement": "formation of a white colony", "setting": "E. amnigenus; added to TSA-BC, 30° C.", "result": "suppressed"}, {"measurement": "Number of colonies", "setting": "E. coli; [1]", "result": "−"}, {"measurement": "Number of colonies", "setting": "E. coli; [2]", "result": "−"}, {"measurement": "Number of colonies", "setting": "E. coli; [3]", "result": "−"}, {"measurement": "Number of colonies", "setting": "E. coli; [4]", "result": "−"}, {"measurement": "Number of colonies", "setting": "E. coli; [5]", "result": "−"}, {"measurement": "Number of colonies", "setting": "E. coli; [6]", "result": "−"}, {"measurement": "Number of colonies", "setting": "E. coli; [7]", "result": "−"}, {"measurement": "Number of colonies", "setting": "E. coli; [8]", "result": "−"}, {"measurement": "Number of colonies", "setting": "E. coli; [9]", "result": "−"}, {"measurement": "Number of colonies", "setting": "E. coli; [10]", "result": "−"}, {"measurement": "Number of colonies", "setting": "E. coli; Ceftazidime 5 mg, 10^1 cfu/mL", "result": "−"}, {"measurement": "Number of colonies", "setting": "E. coli; Ceftazidime 5 mg, 10^2 cfu/mL", "result": "−"}, {"measurement": "Number of colonies", "setting": "E. coli; Ceftazidime 5 mg, 10^3 cfu/mL", "result": "−"}, {"measurement": "Number of colonies", "setting": "E. coli; Ceftazidime 5 mg, 10^4 cfu/mL", "result": "−"}, {"measurement": "Number of colonies", "setting": "E. coli; Ceftazidime 5 mg, 10^5 cfu/mL", "result": "−"}, {"measurement": "formation of a white colony", "setting": "E. coli; added to TSA-BC, 30° C.", "result": "suppressed"}, {"measurement": "Number of colonies", "setting": "B. cereus; ATCC11778, Ceftazidime 0.05 mg, 10^1 cfu/mL", "result": 2}, {"measurement": "Number of colonies", "setting": "B. cereus; ATCC11778, Ceftazidime 0.05 mg, 10^2 cfu/mL", "result": 11}, {"measurement": "Number of colonies", "setting": "B. cereus; ATCC11778, Ceftazidime 0.05 mg, 10^3 cfu/mL", "result": "+"}, {"measurement": "Number of colonies", "setting": "B. cereus; ATCC11778, Ceftazidime 0.05 mg, 10^4 cfu/mL", "result": "+"}, {"measurement": "Number of colonies", "setting": "B. cereus; ATCC11778, Ceftazidime 0.05 mg, 10^5 cfu/mL", "result": "+"}, {"measurement": "Number of colonies", "setting": "B. cereus; ATCC11778, Ceftazidime 0.5 mg, 10^1 cfu/mL", "result": "−"}, {"measurement": "Number of colonies", "setting": "B. cereus; ATCC11778, Ceftazidime 0.5 mg, 10^2 cfu/mL", "result": 13}, {"measurement": "Number of colonies", "setting": "B. cereus; ATCC11778, Ceftazidime 0.5 mg, 10^3 cfu/mL", "result": "+"}, {"measurement": "Number of colonies", "setting": "B. cereus; ATCC11778, Ceftazidime 0.5 mg, 10^4 cfu/mL", "result": "+"}, {"measurement": "Number of colonies", "setting": "B. cereus; ATCC11778, Ceftazidime 0.5 mg, 10^5 cfu/mL", "result": "+"}, {"measurement": "Number of colonies", "setting": "B. cereus; ATCC11778, Ceftazidime 5 mg, 10^1 cfu/mL", "result": "−"}, {"measurement": "Number of colonies", "setting": "B. cereus; ATCC11778, Ceftazidime 5 mg, 10^2 cfu/mL", "result": 17}, {"measurement": "Number of colonies", "setting": "B. cereus; ATCC11778, Ceftazidime 5 mg, 10^3 cfu/mL", "result": "+"}, {"measurement": "Number of colonies", "setting": "B. cereus; ATCC11778, Ceftazidime 5 mg, 10^4 cfu/mL", "result": "+"}, {"measurement": "Number of colonies", "setting": "B. cereus; ATCC11778, Ceftazidime 5 mg, 10^5 cfu/mL", "result": "+"}, {"measurement": "Number of colonies", "setting": "B. cereus; ATCC19637, Ceftazidime 0.05 mg, 10^1 cfu/mL", "result": "−"}, {"measurement": "Number of colonies", "setting": "B. cereus; ATCC19637, Ceftazidime 0.05 mg, 10^2 cfu/mL", "result": 7}, {"measurement": "Number of colonies", "setting": "B. cereus; ATCC19637, Ceftazidime 0.05 mg, 10^3 cfu/mL", "result": "+"}, {"measurement": "Number of colonies", "setting": "B. cereus; ATCC19637, Ceftazidime 0.05 mg, 10^4 cfu/mL", "result": "+"}, {"measurement": "Number of colonies", "setting": "B. cereus; ATCC19637, Ceftazidime 0.05 mg, 10^5 cfu/mL", "result": "+"}, {"measurement": "Number of colonies", "setting": "B. cereus; ATCC19637, Ceftazidime 0.5 mg, 10^1 cfu/mL", "result": "−"}, {"measurement": "Number of colonies", "setting": "B. cereus; ATCC19637, Ceftazidime 0.5 mg, 10^2 cfu/mL", "result": 12}, {"measurement": "Number of colonies", "setting": "B. cereus; ATCC19637, Ceftazidime 0.5 mg, 10^3 cfu/mL", "result": "+"}, {"measurement": "Number of colonies", "setting": "B. cereus; ATCC19637, Ceftazidime 0.5 mg, 10^4 cfu/mL", "result": "+"}, {"measurement": "Number of colonies", "setting": "B. cereus; ATCC19637, Ceftazidime 0.5 mg, 10^5 cfu/mL", "result": "+"}, {"measurement": "Number of colonies", "setting": "B. cereus; ATCC19637, Ceftazidime 5 mg, 10^1 cfu/mL", "result": 3}, {"measurement": "Number of colonies", "setting": "B. cereus; ATCC19637, Ceftazidime 5 mg, 10^2 cfu/mL", "result": 5}, {"measurement": "Number of colonies", "setting": "B. cereus; ATCC19637, Ceftazidime 5 mg, 10^3 cfu/mL", "result": "+"}, {"measurement": "Number of colonies", "setting": "B. cereus; ATCC19637, Ceftazidime 5 mg, 10^4 cfu/mL", "result": "+"}, {"measurement": "Number of colonies", "setting": "B. cereus; ATCC19637, Ceftazidime 5 mg, 10^5 cfu/mL", "result": "+"}]}
